Measured values from US20050239656A1, “Pyridine compounds or salts thereof and herbicides containing the same” (priority 2002, published 2005).

Tests used:
corn [1] = assay: Test Example 2: soil surface treatment, upland pot test; assay type: in vivo, Zea mays L.; settings: active ingredient 500 g/ha, observed 20th to 28th day
Outline: (§1)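 In this pre-emergence upland pot test, a small sprayer delivered the diluted compound formulation (1,500 L/ha water) to the soil surface the day after seeding. Plants were then observed, and control was scored from 0 to 100% some 20–28 days after treatment.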

rice [2] = assay: Test Example 1: foliage treatment, upland pot test; assay type: in vivo, Oryza sativa L.; settings: crop, active ingredient 500 g/ha, observed 18th to 23rd day, 0 = non-treated, 100 = complete kill
Outline: (§2)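 Pots of upland field soil were sown and sprayed post-emergence at soybean 0.1–0.4, wheat 1.3–2.4, rice 1.2–2.6 and barnyardgrass 1.3–2.8 leaf stages. Formulations were diluted in water at 500 L/ha with 0.1% (v/v) spreader. Growth control (0 = untreated, 100 = complete kill) was judged by eye 18–23 days later.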

crabgrass [3] = assay: Test Example 2: soil surface treatment, upland pot test; assay type: in vivo, Digitaria sanguinalis L.; settings: active ingredient 500 g/ha, observed 20th to 28th day
Outline: as §1

redroot pigweed [4] = assay: as above; assay type: in vivo, Amaranthus retroflexus L.; settings: active ingredient 500 g/ha, observed 20th to 28th day
Outline: as §1

soybean [5] = assay: Test Example 1: foliage treatment, upland pot test; assay type: in vivo, Glycine max Merr.; settings: crop, active ingredient 500 g/ha, observed 18th to 23rd day, 0 = non-treated, 100 = complete kill
Outline: as §2

prickly sida [6] = assay: Test Example 2: soil surface treatment, upland pot test; assay type: in vivo, Sida spinosa L.; settings: active ingredient 500 g/ha, observed 20th to 28th day
Outline: as §1

barnyardgrass [7] = assay: as above; assay type: in vivo, Echinochloa crus-galli L.; settings: active ingredient 500 g/ha, observed 20th to 28th day
Outline: as §1

velvetleaf [8] = assay: Test Example 1: foliage treatment, upland pot test; assay type: in vivo, Abutilon theophrasti MEDIC.; settings: active ingredient 500 g/ha, observed 18th to 23rd day, 0 = non-treated, 100 = complete kill
green foxtail [9] = assay: Test Example 2: soil surface treatment, upland pot test; assay type: in vivo, Setaria viridis L.; settings: active ingredient 500 g/ha, observed 20th to 28th day
Outline: as §1

redroot pigweed [10] = assay: Test Example 1: foliage treatment, upland pot test; assay type: in vivo, Amaranthus retroflexus L.; settings: active ingredient 500 g/ha, observed 18th to 23rd day, 0 = non-treated, 100 = complete kill
rice (var. Nihonbare) = assay: Test Example 3: paddy pot test, transplanted rice; assay type: in vivo, Oryza sativa L.; settings: applied 4th day after transplantation, visually observed 21st day after application, 0 = non-treated, 100 = complete kill
Outline: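 Rice (2-leaf stage) was transplanted 3 cm deep into puddled, leveled paddy soil under 3–4 cm flooding. On day 4 after transplanting, diluted wettable powder or emulsifiable concentrate was pipetted onto the water at a predetermined active-ingredient dose. Growth control (0 = untreated, 100 = complete kill) was scored visually 21 days later.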

barnyardgrass [11] = assay: Test Example 3: paddy pot test, application under submerged conditions; assay type: in vivo, Echinochloa crus-galli L.; settings: submerged application at 0.5 leaf stage, visually observed 14 days after application, 0 = non-treated, 100 = complete kill
Outline: (§3)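 After sowing seeds and planting wapato tubers in flooded paddy soil, an aqueous dilution of the formulated compound was added to the 3–4 cm flood water at early leaf stage. Percent growth control relative to the untreated plot was assessed visually on day 14.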

barnyardgrass [12] = assay: Test Example 1: foliage treatment, upland pot test; assay type: in vivo, Echinochloa crus-galli L.; settings: active ingredient 500 g/ha, observed 18th to 23rd day, 0 = non-treated, 100 = complete kill
Outline: as §2

corn [13] = assay: Test Example 1: foliage treatment, upland pot test; assay type: in vivo, Zea mays L.; settings: crop, active ingredient 500 g/ha, observed 18th to 23rd day, 0 = non-treated, 100 = complete kill
Outline: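 In this upland pot foliage test, corn plants at 2.1 to 3.2 leaf stages were sprayed by a small size sprayer. The spray was a conventionally formulated wettable powder or emulsifiable concentrate weighed to a set active ingredient amount, diluted in water at 500 L/ha, plus 0.1% (v/v) agricultural spreader. Visual assessment on days 18 to 23 gave growth controlling degree (%), where 0 equals untreated and 100 means complete kill.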

japanese ribbon wapato = assay: Test Example 3: paddy pot test, application under submerged conditions; assay type: in vivo, Sagittaria pygniaea; settings: submerged application at primary leaf stage, visually observed 14 days after application, 0 = non-treated, 100 = complete kill
Outline: as §3

japanese bulrush = assay: as above; assay type: in vivo, Scirpus juncoides; settings: submerged application at 0.5 leaf stage, visually observed 14 days after application, 0 = non-treated, 100 = complete kill
Outline: as §3

soybean [14] = assay: Test Example 2: soil surface treatment, upland pot test; assay type: in vivo, Glycine max Merr.; settings: active ingredient 500 g/ha, observed 20th to 28th day
Outline: as §1

velvetleaf [15] = assay: as above; assay type: in vivo, Abutilon theophrasti MEDIC.; settings: active ingredient 500 g/ha, observed 20th to 28th day
Outline: as §1

green foxtail [16] = assay: Test Example 1: foliage treatment, upland pot test; assay type: in vivo, Setaria viridis L.; settings: active ingredient 500 g/ha, observed 18th to 23rd day, 0 = non-treated, 100 = complete kill
rice [17] = assay: Test Example 2: soil surface treatment, upland pot test; assay type: in vivo, Oryza sativa L.; settings: active ingredient 500 g/ha, observed 20th to 28th day
Outline: as §1

prickly sida [18] = assay: Test Example 1: foliage treatment, upland pot test; assay type: in vivo, Sida spinosa L.; settings: active ingredient 500 g/ha, observed 18th to 23rd day, 0 = non-treated, 100 = complete kill
crabgrass [19] = assay: Test Example 1: foliage treatment, upland pot test; assay type: in vivo, Digitaria sanguinalis L.; settings: active ingredient 500 g/ha, observed 18th to 23rd day, 0 = non-treated, 100 = complete kill

Row | SMILES | Growth controlling degree (%) Corn (corn [1]) [%] | Growth controlling degree (%) Rice (rice [2]) [%] | Growth controlling degree (%) Crabgrass (crabgrass [3]) [%] | Growth controlling degree (%) Redroot pigweed (redroot pigweed [4]) [%] | Growth controlling degree (%) Soybean (soybean [5]) [%] | Growth controlling degree (%) Prickly sida (prickly sida [6]) [%] | Growth controlling degree (%) Barnyardgrass (barnyardgrass [7]) [%] | Growth controlling degree (%) Velvetleaf (velvetleaf [8]) [%] | Growth controlling degree (%) Green foxtail (green foxtail [9]) [%] | Growth controlling degree (%) Redroot pigweed (redroot pigweed [10]) [%] | Growth controlling degree (%) Barnyardgrass (barnyardgrass [12]) [%] | Growth controlling degree (%) Corn (corn [13]) [%] | Growth controlling degree (%) Soyabean (soybean [14]) [%] | Growth controlling degree (%) Velvetleaf (velvetleaf [15]) [%] | Growth controlling degree (%) Green foxtail (green foxtail [16]) [%] | Growth controlling degree (%) Rice (rice [17]) [%] | Growth controlling degree (%) Prickly sida (prickly sida [18]) [%] | Growth controlling degree (%) Crabgrass (crabgrass [19]) [%] | Growth controlling degree (%) Rice (rice (var. Nihonbare); active ingredient 250 g/ha) [%] | Growth controlling degree (%) Barnyardgrass (barnyardgrass [11]; active ingredient 250 g/ha) [%] | also measured
1 | CC(C)C(c1cnccc1Cl)N(C)C(=O)Cc1c(F)cccc1F (stereo not drawn) [I-70] | 0 | 20 | 98 | 70 | 30 | 50 | 80 | 80 | 70 | 50 | 40 | 50 | 0 | 0 | 60 | 40 | 80 | 80 |  |  | Growth controlling degree (%) Rice (rice (var. Nihonbare); active ingredient 125 g/ha): 10%; Growth controlling degree (%) Barnyardgrass (barnyardgrass [11]; active ingredient 125 g/ha): 80%; Growth controlling degree (%) Japanese ribbon wapato (japanese ribbon wapato; active ingredient 125 g/ha): 40%; Growth controlling degree (%) Japanese bulrush (japanese bulrush; active ingredient 125 g/ha): 70%
2 | CC(C)C(c1cnccc1C(F)(F)F)N(C)C(=O)Cc1cc(F)ccc1F (stereo not drawn) [I-85] | 10 | 40 | 100 | 90 | 80 | 100 | 100 | 90 | 100 | 70 | 80 | 60 | 40 | 80 | 85 | 10 | 80 | 90 | 0 | 100 | Growth controlling degree (%) Japanese ribbon wapato (japanese ribbon wapato; active ingredient 250 g/ha): 70%; Growth controlling degree (%) Japanese bulrush (japanese bulrush; active ingredient 250 g/ha): 98%
3 | CC(C)C(c1cnccc1C(F)(F)F)N(C)S(=O)(=O)c1ccccc1 (stereo not drawn) [I-117, N-methyl-N-[2-methyl-1-(4-trifluoromethylpyridin-3-yl)propyl]phenylsulfonamide] | 20 | 20 | 95 | 60 | 60 | 70 | 100 | 80 | 100 | 50 | 80 | 30 | 10 | 50 | 40 | 40 | 70 | 80 | 0 | 95 | Growth controlling degree (%) Japanese ribbon wapato (japanese ribbon wapato; active ingredient 250 g/ha): 0%; Growth controlling degree (%) Japanese bulrush (japanese bulrush; active ingredient 250 g/ha): 98%
